Series [1] deals with neuroblastoma (SK-N-BE) cells. Description: Proapoptotic effect by flow cytofluorometry, SK-N-BE cells. Format: cell-based. The following applies: Homo sapiens, three experiments in triplicate, read-out: IC50 ± S.D. (concentration required to cause 50% apoptosis), SK-N-BE. An excerpt:
(§1) Flow cytofluorometry was used to evaluate the ability of some compounds of the invention to induce cell death, with particular reference to apoptosis. This latter phenomenon is characterized by morphological modification of the plasmatic membrane as a result of the translocation of the phospholipid phosphatidylserine (PS) in the plasmatic membrane from the cytoplasmic side to the outer surface of the cell. […] Annexin is detected because it is conjugated to a specific fluorochrome, thus allowing to distinguish apoptosis from necrotic phenomena, which are instead measured by the fluorescent dye propidium iodide, which penetrates freely in the cell having a damaged plasmatic membrane.
Both primary lymphocytic tumor cells taken from patients with chronic lymphatic leukemia (LLC) and humanized cell lines of neuroblastoma (SK-N-BE), hepatocarcinoma (HepG2 and HUH7.5) and breast cancer (MDA-MB-231) were used. […]
(§2) The results obtained by cytofluorometry from three separate experiments executed in triplicate were tabulated, estimating the concentration required to cause 50% apoptosis (IC50), and standard deviation.

Series [2] deals with hepatocarcinoma (HUH7.5) cells. Briefly: Proapoptotic effect by flow cytofluorometry, HUH7.5 cells. The series is classed as cell-based. The conditions noted are these: Homo sapiens, 24 hours incubation, three experiments in triplicate, read-out: IC50 ± S.D. (concentration required to cause 50% apoptosis), HUH7.5.
From the text: as §1
(§3) Both primary lymphocytic tumor cells taken from patients with chronic lymphatic leukemia (LLC) and humanized cell lines of neuroblastoma (SK-N-BE), hepatocarcinoma (HepG2 and HUH7.5) and breast cancer (MDA-MB-231) were used.
(§4) HepG2 (2×10^5 cells per well), HUH7.5 and MDA-MB-231 (1.5×10^5 cells per well) cells were seeded on a 6-well plate in Dulbecco's Modified Eagle Medium (DMEM), 10% FBS and cultured at 37° C. in a 5% CO2 atmosphere. After 24 hours, the medium was removed and replaced by DMEM containing the test compounds, previously dissolved in 100% dimethylsulfoxide, and diluted such that the final concentration of the same in cell incubation solutions was 0.5% (v/v). After 30 minutes incubation, 10% FBS was added, and the cells were incubated for 24 hours, then detached with trypsin, and analyzed by cytofluorimeter. LLC cells (1×10^6 cells per well) were seeded and cultured on 12-well plates in RPMI-1640 medium, 10% FBS, at 37° C. in a humified atmosphere containing 5% CO2. To this medium, test compounds were added, and incubation was carried out for 24 hours, after which time the cells were analyzed by cytofluorimeter.
as §2

Series [3] relates to hepatocarcinoma (HepG2) cells. Briefly: Proapoptotic effect by flow cytofluorometry, HepG2 cells. The series is classed as cell-based. The following applies: Homo sapiens, 24 hours incubation, three experiments in triplicate, read-out: IC50 ± S.D. (concentration required to cause 50% apoptosis), HepG2.
From the text: as §1, §3, §4, §2

Series [4] concerns primary lymphocytic tumor cells taken from patients with chronic lymphatic leukemia (LLC). Description: Proapoptotic effect by annexin V/propidium iodide flow cytofluorometry, LLC cells. The series is classed as cell-based. The following applies: Homo sapiens, 24 hours incubation, three experiments in triplicate, read-out: IC50 ± S.D. (concentration required to cause 50% apoptosis), LLC.
From the text: as §1, §3, §4
Leukemic lymphocytes were isolated, following heparinized venous withdrawal from peripheral blood of LLC patients, diluted with saline in a 1:3 ratio, layered on a Ficoll/Hypaque (F/H) density gradient, centrifuged at 900 rpm for 20 minutes, at 20° C. without brakes. Mononuclear cells and platelets, concentrating on top of the F/H gradient, were separated after 2 further washings, with centrifugation at 400 rpm at room temperature. The mononuclear cells thus obtained were washed 3 times with PBS, centrifuged for 10 minutes at 400 rpm, at 20° C. with brakes, and resuspended in RPMI 1640.
In most LLC cases, the percentage of leukemic B cells was higher than 85% with respect to all mononuclear cells from peripheral blood.
as §2

Series [5] has as its system breast cancer (MDA-MB-231) cells. Briefly: Proapoptotic effect by flow cytofluorometry, MDA-MB-231 cells. The series is classed as cell-based. The following applies: Homo sapiens, 24 hours incubation, three experiments in triplicate, read-out: IC50 ± S.D. (concentration required to cause 50% apoptosis), MDA-MB-231.
From the text: as §1, §3, §4, §2

For another series, the system named is S1P1 receptor. Description: Immunosuppressive effect: Western blot of S1P1 receptor in LLC cells. The series is classed as cell-based, human. The following applies: incubation for discrete times (3 hours, 12 hours).
Series [6] concerns breast cancer and multiple myeloma cells. The conditions noted are these: cited from earlier work.

Molecules are shown by their SMILES.

Protocol for S1P1 receptor: To this end, LLC cells (5×10^5 per well) were seeded and cultured on 12-well plates in RPMI-1640 medium, 10% FBS, at 37° C. in a humidified atmosphere containing 5% CO2, adding to the culture the various test compounds. Incubation was conducted for discrete times, at the end of which the cells were lysed to submit the protein content to Western blot analysis with antibodies that specifically recognize the S1P1 receptor.

As for `CCCCCC[Se]c1ccc(C(=O)CCN2CCN(C)CC2)cc1` [Compound 22, 1-(4-(hexylselenyl)phenyl)-3-(4-methylpiperazin-1-yl)propan-1-one], the IC50 in series [1] was found to be 8200 ± 70 nM; in series [2] it was 8000 ± 60 nM; in series [3], 8100 ± 100 nM; in series [4] it was 8150 ± 70 nM; in series [5], 8100 ± 70 nM.
For the molecule `CCCCCCC[Se]c1ccc(C(=O)CCN2CCN(C)CC2)cc1` [Compound 23, 1-(4-(heptylselenyl)phenyl)-3-(4-methylpiperazin-1-yl)propan-1-one], the IC50 in series [1] was 1750 ± 90 nM; in series [2], 1690 ± 80 nM; in series [3], 1700 ± 50 nM; in series [4] it was 1770 ± 50 nM; in series [5] it was 1700 ± 90 nM.
For the molecule `CCCCCCCc1ccc(C(=O)CCN2CCOCC2)cc1` [Compound 24, 1-(4-heptylphenyl)-3-morpholinopropan-1-one], the IC50 worked out at 500 ± 170 nM in series [1]; 500 ± 65 nM in series [2]; 500 ± 80 nM in series [3]; 500 ± 150 nM in series [4]; 550 ± 80 nM in series [5].
Regarding `CCCCCCCc1ccc(C(=O)CCN2CCCCC2)cc1` [Compound 25, 1-(4-heptylphenyl)-3-(piperidin-1-yl)propan-1-one], the IC50 in series [1] amounted to 1600 ± 100 nM; in series [2], 1500 ± 100 nM; in series [3], 1550 ± 90 nM; in series [4] it was 1500 ± 80 nM; in series [5], 1650 ± 750 nM.
For `CCCCCCCc1ccc(C(=O)CCN2CCN(C)CC2)cc1` [Compound 26, 1-(4-heptylphenyl)-3-(4-methylpiperazin-1-yl)propan-1-one], the IC50 in series [1] is 750 ± 130 nM; in series [2], 950 ± 60 nM; in series [3] it was 800 ± 70 nM; in series [4], 850 ± 60 nM; in series [5], 900 ± 50 nM.
As for `CCCCCCCCc1ccc(CCC(N)(CO)CO)cc1.Cl` [FTY720, 2-amino-2[2-(4-octylphenyl)ethyl]propane-1,3-diol hydrochloride], in the series on S1P1 receptor, the “S1P1 receptor expression (Western blot, FIG. 1)” value is reported as “induces a rapid decrease of S1P1 receptor”.
In the case of `CCCCOc1ccc(C(=O)CCN2CCCCC2)cc1` [dyclonine], in series [6] (breast cancer and multiple myeloma cells, articles of D. Ju et al., read-out: induction of caspase-dependent apoptosis (IC50 values)), the IC50 is 15000 to 30000 nM. Further, the “cytotoxic effects of dyclonine alone” value in series [6] (in vitro, alone without MG132 or bortezomib) is recorded as “very limited cytotoxic effects”.

These data come from patent US11345673B2, “1-phenylpropanone compounds and use thereof” (UNIVERSITA' DEGLI STUDI DI PADOVA, priority 2016, dated 2022).
